{"source": "patent US20070043112A1", "about": "“Use of non-opiates for the potentation of opiates” (priority 2003, published 2007)", "test": "rat tail flick assay (nociceptive reaction latency)", "format": "in vivo", "conditions": "ifenprodil IN 1 mg/rat + morphine IP 6 mg/kg, given 30 min before the test, Student's t test P<0.05 vs morphine group", "experimental": "In FIG. 1, results are expressed as mean±sem for 6 experiments, which are (from left to right): vehicle, morphine (6 mg/kg), vehicle, ifenprodil (1 mg/rat), vehicle IN+vehicle IP, and ifenprodil IN (1 mg/rat)+morphine IP (6 mg/kg). • vehicle: 90% saline 10% propylene glycol • vehicle and morphine were given intraperitoneally 30 min. before the test • vehicle and ifenprodil were given intranasally 30 min. before the test • n=10 rats per group • student's T test: * indicates a significant difference in comparison to the vehicle group for P<0.05 • student's T test: † indicates a significant difference in comparison to the morphine group for P<0.05"}
{"smiles": "CC(C(O)c1ccc(O)cc1)N1CCC(Cc2ccccc2)CC1", "note": "(stereo not shown) [ifenprodil]", "values": [{"measurement": "potentiation of morphine analgesia (nociceptive reaction latency)", "value": "potentiates morphine when administered intranasally"}]}
